Measurements: PubChem BioAssay (NCI)
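48-hour exposure; five concentrations; linearly interpolated endpoints. Definition used: TGI = concentration required for complete inhibition of growth.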

Tests used:
Assay in all cases: growth of human tumour cells (NCI), 48 h
HT29 colon = test system: HT29 colon
NCI-H522 lung = test system: NCI-H522 lung
T-47D breast = test system: T-47D breast
NCI-H460 lung = test system: NCI-H460 lung
HCT-15 colon = test system: HCT-15 colon
SN12C renal = test system: SN12C renal
SK-MEL-28 melanoma = test system: SK-MEL-28 melanoma
HL-60(TB) leukemia = test system: HL-60(TB) leukemia
M14 melanoma = test system: M14 melanoma
ACHN renal = test system: ACHN renal
A549 NSCLC = test system: A549 NSCLC
NCI-H23 lung = test system: NCI-H23 lung
SK-OV-3 ovarian = test system: SK-OV-3 ovarian
786-0 renal = test system: 786-0 renal
OVCAR-8 ovarian = test system: OVCAR-8 ovarian
SK-MEL-2 melanoma = test system: SK-MEL-2 melanoma
SW-620 colon = test system: SW-620 colon

Compound | TGI (HT29 colon) [µM] | TGI (NCI-H522 lung) [µM] | TGI (T-47D breast) [µM] | TGI (NCI-H460 lung) [µM] | TGI (HCT-15 colon) [µM] | TGI (SN12C renal) [µM] | TGI (SK-MEL-28 melanoma) [µM] | TGI (HL-60(TB) leukemia) [µM] | TGI (M14 melanoma) [µM] | TGI (ACHN renal) [µM] | TGI (A549 NSCLC) [µM] | TGI (NCI-H23 lung) [µM] | TGI (SK-OV-3 ovarian) [µM] | TGI (786-0 renal) [µM] | TGI (OVCAR-8 ovarian) [µM] | TGI (SK-MEL-2 melanoma) [µM] | TGI (SW-620 colon) [µM]
CC1(C)CC(=O)C2=C(C1)N(c1ccccc1)C1(O)C=CC(=O)C3=C(O)c4ccccc4C(=O)C321 (stereo not drawn) | 54 | 45.8 | > 100 | 83.9 | > 100 | > 100 | 39.3 | > 100 | > 100 | 46.2 | > 100 | 84 | > 100 | > 100 | > 100 | 60.9 | 
CCCCCCCCC[C@@H]1C[C@@H]2CCC3C(C(=O)OCCCCNC(=O)OCc4ccccc4)=C(C)NC(=N1)N32 (stereo partly drawn) | 12.9 | 6.01 | 10.6 | 13.3 | 8.06 | 10.7 | 13.5 | 4.01 | 6.97 | 12.2 | 23.3 | 6.78 | 8.74 | 3.2 | 8.7 | 4.84 | 14.2
CCCCCCCCCCOC1C(C(C)OCCCN(C)C)OC2OC3(CCCCC3)OC21 (stereo not drawn) | 11 | 34 | 35.7 | 22.7 | 17.5 | 30.3 | 25.5 | 20.7 | 10.2 | 31.4 | 30.8 | 23.8 | 32.7 | 30.9 | 34.6 | 30.4 | 27.1
COC(=O)C1(Cc2ccc3c(c2)CCC3)Cc2cc3c(cc2C1=O)CCC3 (stereo not drawn) | > 46.4 | > 31.6 | > 46.4 | > 46.4 | > 46.4 | > 46.4 | > 46.4 | 17.9 | > 46.4 | > 46.4 | > 46.4 | > 46.4 | > 46.4 | > 46.4 | > 46.4 | > 31.6 | > 46.4
O=C(O)C1(CC(CCCN2CCCCC2)c2ccccc2)CCCC1 (stereo not drawn) | > 100 | > 100 | > 100 | > 100 | > 100 | > 100 | > 100 | > 100 | > 100 | > 100 | > 100 | > 100 | > 100 | > 100 | > 100 | > 100 | > 100
CCOC(=S)SC/C(=N\OC(C)(C)OC)c1ccccc1 | 58.3 | 59.1 | 63.1 | > 100 | > 100 | > 100 | > 100 | 54.7 | > 100 | > 100 | > 100 | > 100 | > 100 | > 100 | > 100 | 43.9 | > 100
CCC(=O)n1c(=O)n(-c2ccc([N+](=O)[O-])cc2)c(=O)n1C(=O)CC | > 100 | > 100 | > 100 | > 100 | > 100 | > 100 | > 100 | > 100 | > 100 | > 100 | > 100 | > 100 | > 100 | > 100 | > 100 | > 100 | > 100
